Laboratory results: publication PMC6482174, “Fragment-based screening identifies inhibitors of ATPase activity and of hexamer formation of Cagα from the Helicobacter pylori type IV secretion system” (Scientific Reports, 2019)

Tests used:
[1] = test system: IL-8 production by AGS cells upon co-cultivation with H. pylori; experiment: IL-8 induction in AGS cells co-cultivated with H. pylori (ELISA); type: cell-based, Helicobacter pylori; conditions: 200 μM
Source text: (§1) Finally, we assessed whether molecule 1G2 or its derivates impact the functionality of the T4SS in vivo. To this effect, we tested their impact on the interaction of H. pylori strain 26695 with gastric adenocarcinoma (AGS) cells. […] We then tested the effects of these molecules in two commonly used assays for downstream effects of T4SS function: IL-8 production and CagA phosphorylation. […] In contrast, derivates 1G2#1 to #6 have no effect on IL-8 production. Similarly, none of the molecules reduces the tyrosine phosphorylation of the T4SS-translocated virulence factor CagA, which is generally used as an alternative assay to measure T4SS function (Supplementary Fig. 8). […] This observation may be due to partial inhibition of T4SS function by 1G2 that is more readily quantifiable in the IL-8 production assay as compared to the CagA phosphorylation assay.
Figure 6 Molecule 1G2 decreases IL-8 induction in co-cultivated AGS cells. H. pylori 26695 without and after pre-incubation with 1G2 and its derivatives for […]. AGS cells were then co-cultured with H. pylori overnight and IL-8 induction was measured by ELISA. The induction of IL-8 by the wild type was calculated as 100% (WT), induction of IL-8 by the ΔcagV strain was used as negative control. The data represent the results from three experiments. […]

[2] = target: Cagα ATPase activity (Helicobacter pylori, UniProt G5EB02); experiment: Malachite green ATPase activity assay; type: biochemical; conditions: for Mechanism of inhibition: inhibitor 0 to 500 μM, ATP varied, only Vmax affected, Km constant
Chain of Cagα ATPase activity (G5EB02 entry or part of it): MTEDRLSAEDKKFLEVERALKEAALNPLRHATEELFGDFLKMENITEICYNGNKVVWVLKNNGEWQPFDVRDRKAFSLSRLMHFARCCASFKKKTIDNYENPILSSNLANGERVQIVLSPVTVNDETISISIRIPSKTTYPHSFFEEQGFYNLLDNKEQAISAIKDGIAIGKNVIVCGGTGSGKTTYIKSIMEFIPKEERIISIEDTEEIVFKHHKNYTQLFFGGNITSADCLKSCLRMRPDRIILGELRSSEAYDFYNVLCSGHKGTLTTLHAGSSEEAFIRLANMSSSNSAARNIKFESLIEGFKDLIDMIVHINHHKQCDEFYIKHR
Experimental: We used a Malachite green assay to measure the release of inorganic phosphate from ATP to assess whether the 16 binding fragments impact the enzymatic activity of Cagα. […] Therefore, the mechanism of inhibition by molecules 1G2 and 1G2#4 is non-competitive.
The ATPase activity was quantified using a malachite green binding assay. The 100 μL reaction mixtures contained 25 mM HEPES (pH 7.5), 100 mM NaCl, 60 nM of enzyme and 200 µM of MgCl2 with different concentrations of ATP (0 µM–320 µM) to determine kinetic parameters. The reaction mixtures were incubated for 30 min at 30 °C and then 40 μL of malachite green assay mixture was added. The formation of the blue phosphomolybdate-malachite green complex was in linear relation to the amount of released inorganic phosphate and measured at 610 nm. To study the mechanism of inhibition, the concentrations of inhibitors were varied between 0 and 500 μM with different concentrations of ATP (0–40 μM). Initial velocity data were fit using nonlinear regression analysis to each of the equations describing partial and full models of competitive, uncompetitive, non-competitive, and mixed inhibition using the Enzyme Kinetics Module of SigmaPlot (SigmaPlot version 11.0 software). On the basis of the analysis of fits through “goodness-of-fit” statistics, the full non-competitive inhibition model was determined with the equation ν = Vmax/[(1 + [I]/Ki) × (1 + Km/[S])], where [S] = [ATP], [I] = [1G2].
IC50 values were determined by incubating different concentrations of molecules (10–1,000 µM; from stocks of 200 mM) with enzyme in 25 mM HEPES (pH 7.5) and 100 mM NaCl. Mixtures were incubated with inhibitors for 15 min, followed by addition of ATP and incubation for 30 min at 37 °C. The reactions were stopped by addition of 40 µl malachite green solution and the inorganic phosphate released was determined at 610 nm. Data were plotted as 1/rate versus inhibitor concentration for each substrate concentration and a linear fit was calculated by non-linear regression using SigmaPlot (version 11.0).

[3] = test system: tyrosine phosphorylation of the T4SS-translocated virulence factor CagA; experiment: CagA transfer into AGS cells / CagA tyrosine phosphorylation (western blot); type: cell-based, Helicobacter pylori; conditions: H. pylori pre-incubated with molecule, AGS infection
Source text: as §1
Preceding the infection, an overnight culture of H. pylori was pre-incubated with 1G2 and its derivates for 30 min. AGS cells at 6 × 10^5 cells/well density in 6-well plates were infected with the pre-treated cultures of H. pylori for 3–6 h at a multiplicity of infection of 100:1. […]
Western blot analyses were reproduced four times and intensities of the CagAPY signals were quantified (Image Lab TM Software) and normalized using anti -b-actin signals. […]

[4] = test system: H. pylori 26695; experiment: H. pylori growth on solid agar media (Whatman paper disks); type: cell-based, Helicobacter pylori; conditions: 72 h
Source text: as §1
AGS cell viability was monitored using Cell Proliferation Reagent WST-1 (Sigma). To evaluate the sensitivity of H. pylori to 1G2 and its derivates, freshly harvested bacteria were spread on a 150-mm agar plate. Increasing concentrations of compounds (50–500 μM) were spotted onto Whatman paper disks and growth was observed after 72 h incubation at 37 °C under microaerophilic conditions and compared to antibiotics (50–250 μM).
Supplementary Figure 6. Effects of molecule 1G2 and its derivates on H. pylori growth. […]

Row | Structure (SMILES) | Effect on IL-8 production (in words) [1] | IC50 [2] [µM] | Mechanism of inhibition [2] | Effect on tyrosine phosphorylation of CagA [3] | Effect on growth of H. pylori on solid agar media ([4]; concentrations up to 500 μM) | IL-8 production, of the control ([1]; wild type without molecule = 100%) | Effect on growth of H. pylori (control antibiotic) ([4]; several concentrations on Whatman paper disks)
1 | Cc1ccc(Oc2ccc(C(=O)O)cc2)nc1 [1G2#4] | no effect | 81.9 | non-competitive | no effect | – | – | –
2 | O=C(O)c1ccc(Oc2ccccn2)cc1 [1G2] | – | 196 | non-competitive | did not observe an effect | no negative effect | about 50% | –
3 | O=C(N[C@H](CO)[C@H](O)c1ccc([N+](=O)[O-])cc1)C(Cl)Cl [chloramphenicol, reference compound] | – | – | – | – | – | – | inhibition of growth
